US10669272B2, “Substituted naphthyridinone compounds useful as T cell activators” (BRISTOL-MYERS SQUIBB COMPANY, priority 2018, dated 2020)
Where two headings read alike, the source gives them in different places.

Legend:
naïve human CD8 T cells = assay: Human CD8 T cells IFN-γ assay; format: cell-based; settings: Homo sapiens, T-cell, 20 h, normalized to 3 μM reference compound with anti-CD3 plus anti-CD28 as 100% activation; read-out: HuCD8 INFG Normalized EC50;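 also: Naïve human CD8 T cells stimulated with plate-bound anti-CD3 and soluble anti-CD28, IFN-γ in supernatant quantified by AlphaLISA and converted to pg/mL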
Human venous whole blood = assay: Human whole blood IFN-γ assay; format: cell-based; settings: Homo sapiens, human whole blood, normalized to 3 μM reference compound with anti-CD3 plus anti-CD28 as 100% activation, read-out: INFg Whole Blood Normalized Agonist EC50;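 also: blood from healthy donors exposed to compound for 1 h before stimulation with anti-CD3 and anti-CD28 at 1 µg/mL each, IFN-γ quantified in supernatant by AlphaLISA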
human DGKζ = target: T1, human DGKζ (Homo sapiens, UniProt Q13574); assay: DGKζ LIPGLO assay (extruded liposome substrate), in vitro DGK inhibition; format: biochemical; settings: liposome (LIPGLO) assay; read-out: DGKz LIPGLO IC50
T1 construct: TVMV protease cleavage site (C); Hexa-His (C); made in house; host or cells: Sf9 insect cells (baculovirus, Bac-to-Bac)

human DGKα = target: T2, human DGKα (Homo sapiens, UniProt P23743); assay: DGKα LIPGLO assay (extruded liposome substrate), in vitro DGK inhibition; format: biochemical; settings: liposome (LIPGLO) assay; read-out: DGKa LIPGLO IC50
T2 construct: TVMV protease cleavage site (C); Hexa-His (C); made in house; host or cells: Sf9 insect cells (baculovirus, Bac-to-Bac)
T2 sequence (P23743 with tags, fused parts or gaps): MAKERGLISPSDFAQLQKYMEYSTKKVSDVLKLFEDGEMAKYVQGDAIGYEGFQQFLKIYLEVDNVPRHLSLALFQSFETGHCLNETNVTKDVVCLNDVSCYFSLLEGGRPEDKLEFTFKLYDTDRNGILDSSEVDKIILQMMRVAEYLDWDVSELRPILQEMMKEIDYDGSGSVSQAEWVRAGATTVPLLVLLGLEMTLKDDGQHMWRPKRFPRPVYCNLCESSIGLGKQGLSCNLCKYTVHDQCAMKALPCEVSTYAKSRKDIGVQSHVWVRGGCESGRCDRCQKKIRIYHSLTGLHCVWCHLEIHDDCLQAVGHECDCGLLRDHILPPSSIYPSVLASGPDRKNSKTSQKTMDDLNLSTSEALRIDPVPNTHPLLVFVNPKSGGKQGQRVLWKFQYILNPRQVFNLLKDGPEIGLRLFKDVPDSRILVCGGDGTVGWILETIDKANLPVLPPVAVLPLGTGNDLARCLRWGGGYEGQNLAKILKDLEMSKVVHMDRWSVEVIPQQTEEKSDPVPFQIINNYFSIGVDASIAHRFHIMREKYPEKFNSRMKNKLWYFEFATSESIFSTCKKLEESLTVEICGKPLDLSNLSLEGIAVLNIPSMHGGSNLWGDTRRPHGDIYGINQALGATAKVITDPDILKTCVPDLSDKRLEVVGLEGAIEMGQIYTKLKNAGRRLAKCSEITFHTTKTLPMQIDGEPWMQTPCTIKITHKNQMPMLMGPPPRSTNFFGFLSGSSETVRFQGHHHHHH

T1 sequence (Q13574 with tags, fused parts or gaps isoform Q13574-4): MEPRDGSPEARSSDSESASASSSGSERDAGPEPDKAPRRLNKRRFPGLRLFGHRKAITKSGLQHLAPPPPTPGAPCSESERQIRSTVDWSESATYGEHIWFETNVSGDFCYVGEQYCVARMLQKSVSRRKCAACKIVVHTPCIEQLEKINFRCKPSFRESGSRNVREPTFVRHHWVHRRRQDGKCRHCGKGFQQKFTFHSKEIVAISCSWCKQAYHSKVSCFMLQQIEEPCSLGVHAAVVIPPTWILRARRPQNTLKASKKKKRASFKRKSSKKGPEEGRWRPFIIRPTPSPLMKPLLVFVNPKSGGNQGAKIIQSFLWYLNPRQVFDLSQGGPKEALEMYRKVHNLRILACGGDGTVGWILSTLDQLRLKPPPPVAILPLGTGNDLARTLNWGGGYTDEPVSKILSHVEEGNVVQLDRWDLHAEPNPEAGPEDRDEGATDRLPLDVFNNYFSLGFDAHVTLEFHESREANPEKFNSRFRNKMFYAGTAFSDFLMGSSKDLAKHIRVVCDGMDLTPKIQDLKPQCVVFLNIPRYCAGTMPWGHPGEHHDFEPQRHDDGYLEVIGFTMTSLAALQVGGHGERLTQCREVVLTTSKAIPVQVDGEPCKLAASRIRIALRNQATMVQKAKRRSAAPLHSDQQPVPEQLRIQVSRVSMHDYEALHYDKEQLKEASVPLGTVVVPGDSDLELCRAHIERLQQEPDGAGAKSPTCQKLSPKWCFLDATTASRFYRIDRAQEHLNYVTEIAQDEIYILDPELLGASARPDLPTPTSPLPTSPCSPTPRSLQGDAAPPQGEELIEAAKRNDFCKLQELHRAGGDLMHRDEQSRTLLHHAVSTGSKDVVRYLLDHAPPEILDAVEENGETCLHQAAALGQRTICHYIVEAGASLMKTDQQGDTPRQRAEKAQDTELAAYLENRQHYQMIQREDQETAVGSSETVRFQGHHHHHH

IC50 (human DGKζ) [nM]	IC50 (human DGKα) [nM]	SMILES	EC50 (naïve human CD8 T cells) [nM]	EC50 (Human venous whole blood) [nM]	EC50 (Human venous whole blood; 24 h) [nM]
970	4400	C[C@@H]1CN(c2cc(=O)n(C)c3ccc(C#N)nc23)[C@@H](C)CN1Cc1ccc(F)cc1C(F)F [Example 242, 8-[(2S,5R)-4-{[2-(difluoromethyl)-4-fluorophenyl]methyl}-2,5-dimethylpiperazin-1-yl]-5-methyl-6-oxo-5,6-dihydro-1,5-naphthyridine-2-carbonitrile]	170	1500	–
1900	290	C[C@@H]1CN(c2cc(=O)n(C)c3ccc(C#N)nc23)[C@@H](C)CN1Cc1ccc(OC(F)(F)F)cc1F [Example 243, 8-[(2S,5R)-4-{[2-fluoro-4-(trifluoromethoxy)phenyl]methyl}-2,5-dimethylpiperazin-1-yl]-5-methyl-6-oxo-5,6-dihydro-1,5-naphthyridine-2-carbonitrile]	160	–	1500
1100	260	C[C@@H]1CN(c2cc(=O)n(C)c3ccc(C#N)nc23)[C@@H](C)CN1Cc1ccc(Cl)cc1O [Example 244, 8-[(2S,5R)-4-[(4-chloro-2-hydroxyphenyl)methyl]-2,5-dimethylpiperazin-1-yl]-5-methyl-6-oxo-5,6-dihydro-1,5-naphthyridine-2-carbonitrile]	110	–	1700
1100	8.6	C[C@@H]1CN(c2cc(=O)n(C)c3ccc(C#N)nc23)[C@@H](C)CN1Cc1ccccc1O [Example 245, 8-[(2S,5R)-4-[(2-hydroxyphenyl)methyl]-2,5-dimethylpiperazin-1-yl]-5-methyl-6-oxo-5,6-dihydro-1,5-naphthyridine-2-carbonitrile]	750	–	5200
460	120	C[C@@H]1CN(c2cc(=O)n(C)c3ccc(C#N)nc23)[C@@H](C)CN1Cc1c(F)cc(F)cc1F [Example 246, 8-[(2S,5R)-2,5-dimethyl-4-[(2,4,6-trifluorophenyl)methyl]piperazin-1-yl]-5-methyl-6-oxo-5,6-dihydro-1,5-naphthyridine-2-carbonitrile]	27	–	550
690	200	C[C@@H]1CN(c2cc(=O)n(C)c3ccc(C#N)nc23)[C@@H](C)CN1Cc1ccc(C#N)cc1F [Example 253, 8-[(2S,5R)-4-[(4-cyano-2-fluorophenyl)methyl]-2,5-dimethylpiperazin-1-yl]-5-methyl-6-oxo-5,6-dihydro-1,5-naphthyridine-2-carbonitrile]	87	–	3000
1600	140	C[C@@H]1CN(c2cc(=O)n(C)c3ccc(C#N)nc23)[C@@H](C)CN1Cc1c(F)cccc1C(F)(F)F [Example 254, 8-[(2S,5R)-4-{[2-fluoro-6-(trifluoromethyl)phenyl]methyl}-2,5-dimethylpiperazin-1-yl]-5-methyl-6-oxo-5,6-dihydro-1,5-naphthyridine-2-carbonitrile]	210	–	2200
1700	770	Cc1cccc(F)c1CN1C[C@H](C)N(c2cc(=O)n(C)c3ccc(C#N)nc23)C[C@H]1C [Example 255, 8-[(2S,5R)-4-[(2-fluoro-6-methylphenyl)methyl]-2,5-dimethylpiperazin-1-yl]-5-methyl-6-oxo-5,6-dihydro-1,5-naphthyridine-2-carbonitrile]	180	–	3200
570	140	CC(c1c(F)cccc1F)N1C[C@H](C)N(c2cc(=O)n(C)c3ccc(C#N)nc23)C[C@H]1C (stereo partly drawn) [Example 256, 8-[(2S,5R)-4-[1-(2,6-difluorophenyl)ethyl]-2,5-dimethylpiperazin-1-yl]-5-methyl-6-oxo-5,6-dihydro-1,5-naphthyridine-2-carbonitrile]	22	650	–
830	25000	C[C@@H]1CN(c2cc(=O)n(C)c3ccc(C#N)nc23)[C@@H](C)CN1C(c1cccc(Cl)c1)c1cccc(Cl)c1 [Example 257, 8-[(2S,5R)-4-[bis(3-chlorophenyl)methyl]-2,5-dimethylpiperazin-1-yl]-5-methyl-6-oxo-5,6-dihydro-1,5-naphthyridine-2-carbonitrile]	810	–	6200
820	240	C[C@@H]1CN(c2cc(=O)n(C)c3ccc(C#N)nc23)[C@@H](C)CN1C(c1ccccc1F)c1ccccc1F [Example 258, 8-[(2S,5R)-4-[bis(2-fluorophenyl)methyl]-2,5-dimethylpiperazin-1-yl]-5-methyl-6-oxo-5,6-dihydro-1,5-naphthyridine-2-carbonitrile]	56	–	1400
840	3100	C[C@@H]1CN(c2cc(=O)n(C)c3ccc(C#N)nc23)[C@@H](C)CN1C(c1ccccc1)c1ccccc1Cl (stereo partly drawn) [Example 259, 8-[(2S,5R)-4-[(2-chlorophenyl)(phenyl)methyl]-2,5-dimethylpiperazin-1-yl]-5-methyl-6-oxo-5,6-dihydro-1,5-naphthyridine-2-carbonitrile]	550	–	2100
1100	3800	C[C@@H]1CN(c2cc(=O)n(C)c3ccc(C#N)nc23)[C@@H](C)CN1Cc1c(Cl)cccc1C#N [Example 260, 8-[(2S,5R)-4-[(2-chloro-6-cyanophenyl)methyl]-2,5-dimethylpiperazin-1-yl]-5-methyl-6-oxo-5,6-dihydro-1,5-naphthyridine-2-carbonitrile]	900	–	4400
1100	390	C[C@@H]1CN(c2cc(=O)n(C)c3ccc(C#N)nc23)[C@@H](C)CN1Cc1c(F)cccc1Cl [Example 261, 8-[(2S,5R)-4-[(2-chloro-6-fluorophenyl)methyl]-2,5-dimethylpiperazin-1-yl]-5-methyl-6-oxo-5,6-dihydro-1,5-naphthyridine-2-carbonitrile]	230	–	880
2500	640	C[C@@H]1CN(c2cc(=O)n(C)c3ccc(C#N)nc23)[C@@H](C)CN1Cc1cc(F)ccc1F [Example 262, 8-[(2S,5R)-4-[(2,5-difluorophenyl)methyl]-2,5-dimethylpiperazin-1-yl]-5-methyl-6-oxo-5,6-dihydro-1,5-naphthyridine-2-carbonitrile]	310	–	7100
1700	6500	C[C@@H]1CN(c2cc(=O)n(C)c3ccc(C#N)nc23)[C@@H](C)CN1Cc1c(Cl)cccc1Cl [Example 263, 8-[(2S,5R)-4-[(2,6-dichlorophenyl)methyl]-2,5-dimethylpiperazin-1-yl]-5-methyl-6-oxo-5,6-dihydro-1,5-naphthyridine-2-carbonitrile]	610	–	6300
3000	35	C[C@@H]1CN(c2cc(=O)n(C)c3ccc(C#N)nc23)[C@@H](C)CN1Cc1ccccc1 [Example 264, 8-[(2S,5R)-4-benzyl-2,5-dimethylpiperazin-1-yl]-5-methyl-6-oxo-5,6-dihydro-1,5-naphthyridine-2-carbonitrile]	260	–	11000
2600	23000	Cc1cccc(C)c1CN1C[C@H](C)N(c2cc(=O)n(C)c3ccc(C#N)nc23)C[C@H]1C [Example 265, 8-[(2S,5R)-4-[(2,6-dimethylphenyl)methyl]-2,5-dimethylpiperazin-1-yl]-5-methyl-6-oxo-5,6-dihydro-1,5-naphthyridine-2-carbonitrile]	1600	–	3800
2100	1400	C[C@@H]1CN(c2cc(=O)n(C)c3ccc(C#N)nc23)[C@@H](C)CN1Cc1c(F)ccc(F)c1Cl [Example 266, 8-[(2S,5R)-4-[(2-chloro-3,6-difluorophenyl)methyl]-2,5-dimethylpiperazin-1-yl]-5-methyl-6-oxo-5,6-dihydro-1,5-naphthyridine-2-carbonitrile]	1100	–	2800
1200	230	C[C@@H]1CN(c2cc(=O)n(C)c3ccc(C#N)nc23)[C@@H](C)CN1Cc1c(F)cc(Cl)cc1F [Example 268, 8-[(2S,5R)-4-[(4-chloro-2,6-difluorophenyl)methyl]-2,5-dimethylpiperazin-1-yl]-5-methyl-6-oxo-5,6-dihydro-1,5-naphthyridine-2-carbonitrile]	54	–	1700
240000	78000	C[C@@H]1CN(c2cc(=O)n(C)c3ccc(C#N)nc23)[C@@H](C)CN1Cc1c(F)cccc1C#N [Example 269, 8-[(2S,5R)-4-[(2-cyano-6-fluorophenyl)methyl]-2,5-dimethylpiperazin-1-yl]-5-methyl-6-oxo-5,6-dihydro-1,5-naphthyridine-2-carbonitrile]	1200	–	8800
570	3400	C[C@@H]1CN(c2cc(=O)n(C)c3ccc(C#N)nc23)[C@@H](C)CN1C(c1cccc(F)c1)c1cccc(F)c1 [Example 270, 8-[(2S,5R)-4-[bis(3-fluorophenyl)methyl]-2,5-dimethylpiperazin-1-yl]-5-methyl-6-oxo-5,6-dihydro-1,5-naphthyridine-2-carbonitrile]	62	–	2000
